Publication PMC3062375 (Biochemistry, 2011)
Non-standard residues stand in square brackets, D forms with d. Residues, ends and D or L forms follow the SMILES beside them. No end group written: not given here. pS = N[C@@H](COP(=O)(O)O)C(=O)O

Target: T1, S100A11 protein (Sus scrofa, UniProt P31950)
T1 sequence (P31950 1-99): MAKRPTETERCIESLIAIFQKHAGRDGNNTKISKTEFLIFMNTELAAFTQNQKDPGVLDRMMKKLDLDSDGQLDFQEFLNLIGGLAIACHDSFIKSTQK
Experiment: Tryptophan fluorescence titration of peptide binding to S100A11
Parameters: species or system porcine

| Compound | Kd [µM] |
| --- | --- |
| CC[C@H](C)[C@H](NC(=O)[C@H](Cc1ccccc1)NC(=O)[C@H](Cc1c[nH]c2ccccc12)NC(=O)[C@H](C)NC(=O)[C@H](CCC(N)=O)NC(=O)[C@H](CCCCN)NC(=O)[C@H](CC(C)C)NC(=O)[C@H](Cc1ccccc1)NC(=O)[C@H](CCC(=O)O)NC(=O)[C@H](COP(=O)(O)O)NC(=O)[C@@H](NC(=O)[C@H](CCSC)NC(=O)[C@H](C)NC(C)=O)C(C)C)C(=O)N[C@@H](CCC(=O)O)C(=O)N[C@@H](CC(N)=O)C(=O)N[C@@H](CCC(=O)O)C(=O)N[C@@H](CCC(=O)O)C(=O)N[C@@H](CCC(N)=O)C(=O)O [Ac1−18P, Ac-AMV[pSer]EFLKQAWFIENEEQ] (Ac-AMV[pS]EFLKQAWFIENEEQ-OH) | 56.8 ± 1 |
| Ac-AMVSEFLKQAWFIENEEQ [Ac1−18, Ac-AMVSEFLKQAWFIENEEQ] | 2.1 ± 0.2 |
